The results in this text go back to patent US8063247B2, “Bicyclic aryl and heteroaryl receptor modulators” (Prosidion Limited, priority 2007, dated 2011).

By Ki is commonly meant a dissociation constant, usually derived from enzyme kinetics or from competition with a known ligand. For orientation: IC50 means the point on the concentration scale where inhibition reaches its midpoint.

Where only a bound is given, the exact number is not on record here.

The target of assay [1] is T1, mu-opioid receptor (Homo sapiens, UniProt P35372). Kind of assay: Competition binding assay (3H-DAMGO). Particulars: mu-opioid receptor expressing membranes, 0.5 nM 3H-DAMGO. The protocol:
Competition Binding Assays
Mu-, kappa- or delta-opioid receptor expressing membranes (5-15 μg/well) were suspended in 50 mM Tris buffer pH 7.6 containing 5 mM MgCl2 and were incubated on 96-well plates with test compound or vehicle (1% DMSO) and either 0.5 nM ^3H-DAMGO, 0.8 nM ^3H-U-69,595 or 1.1 nM ^3H-DPDPE respectively in a total volume of 200 μL for 90 min at rt (22° C.). The contents of the wells were filtered and washed 5 times with chilled 50 mM Tris buffer pH 7.6 through H2O pre-soaked GF/B filters using a Perkin Elmer Filtermate. The filters were dried and upon application of scintillant the bound radioactive content for each well determined by scintillation counting in a Wallac TriLux Microbeta scintillation counter. Non-specific binding was determined in the presence of 2 μM Naloxone. IC50 values were determined by plotting log concentration test compound against specific binding and subsequent Ki values calculated.

Assay [2] concerns the target T1, mu-opioid receptor. As to the kind of experiment: GTPγS functional binding assay (DAMGO-stimulated). It is filed as biochemical. Particulars: mu-opioid receptor expressing membranes, agonist DAMGO 10 nM, 35S-GTPγS binding. The protocol: GTPγS Functional Binding Assays
Mu-, kappa- or delta-opioid receptor expressing membranes (5-20 μg/well) were suspended in 50 mM HEPES buffer pH 7.6 containing 3 mM MgCl2, 120 mM NaCl, 150 pM GTPγS, 10 μg/mL saponin and 3 μM GDP (μ-opioid receptor assay) or 5 μM GDP (κ- and δ-opioid receptor assay) and were pre-incubated on 96-well plates with test compound or vehicle (1% DMSO) in a total volume of 160 μL for 10 min at rt (22° C.). Specific agonists DAMGO (10 nM final concentration), U-50,488 (30 nM final concentration) or SNC-80 (10 nM final concentration) were added respectively and the plates pre-incubated for a further 15 min at rt (22° C.) ^35S-GTPγS at a final concentration in the assay of 150 pM was then added to provide a total volume per well of 200 μL and the plates incubated for 45 min at 30° C. The contents of the wells were filtered and washed 5 times with chilled 50 mM Tris buffer pH 7.6 through H2O pre-soaked GF/B filters using a Perkin Elmer Filtermate. The filters were dried and upon application of scintillant the bound radioactive content for each well determined by scintillation counting in a Wallac TriLux Microbeta scintillation counter. Non-specific binding was determined in the presence of 10 μM GTPγS. IC50 values were determined by plotting log concentration test compound against percentage increase over non-stimulated ^35S-GTPγS binding.

T1 sequence (P35372 whole entry, species assumed): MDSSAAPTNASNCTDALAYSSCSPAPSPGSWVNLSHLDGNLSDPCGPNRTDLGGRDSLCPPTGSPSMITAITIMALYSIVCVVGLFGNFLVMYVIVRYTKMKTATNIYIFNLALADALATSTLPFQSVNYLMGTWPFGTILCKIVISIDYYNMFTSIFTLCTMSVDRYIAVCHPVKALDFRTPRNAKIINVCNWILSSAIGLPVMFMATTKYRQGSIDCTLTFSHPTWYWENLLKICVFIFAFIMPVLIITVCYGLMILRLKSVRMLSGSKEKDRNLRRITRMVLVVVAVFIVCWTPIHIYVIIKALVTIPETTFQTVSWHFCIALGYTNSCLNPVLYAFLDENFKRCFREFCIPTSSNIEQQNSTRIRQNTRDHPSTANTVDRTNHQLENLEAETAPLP

As for `Cc1cc(CNCCC2C3CC4CC(C3)CC2C4)ccc1-c1cccc(C(N)=O)c1` (stereo not shown) [Example 46, 4′-[(2-Adamantan-2-yl-ethylamino)methyl]-2′-methylbiphenyl-3-carboxylic acid amide], the inhibition constant Ki in assay [1] is less than 100 nM. In assay [2], this compound registered an IC50 of less than 100 nM.
Turning to `NC(=O)c1cccc(-c2ccc(CNCCC3C4CC5CC(C4)CC3C5)cn2)c1` (stereo not shown) [Example 84, 3-{5-[(2-Adamantan-2-ylethylamino)methyl]-pyridin-2-yl}benzamide], the inhibitory constant (Ki) in assay [1] is less than 100 nM. For the same compound, the half-maximal inhibitory concentration (IC50) in assay [2] was less than 100 nM.
